From patent publication US9492468B2, “Methods and compositions for treatment of acute heart failure” (PERICOR THERAPEUTICS, INC., priority 2008, dated 2016)
Where a name gives a salt, the structure may show the parent alone.

Columns and labels:
NT-ProBNP [1] = experiment: Plasma NT-proBNP (competitive ELISA), dose escalation study; type: in vivo, dog
Method: Eight heart failure dogs described in Example 1 were used. Seven of 8 dogs underwent two studies, one with active drug GP-531 tartrate and one with vehicle (placebo) and 1 of 8 dogs underwent only one active drug GP-531 study. The order of active drug and placebo was randomized and performed about one week apart. In 6 of 8 dogs, after baseline hemodynamic, and ventriculographic measurements, vehicle was administered as a continuous intravenous infusion for one hour. At the end of one hour, the active drug GP-531 tartrate was administered in 3 escalating dose of continuous intravenous infusion with each dose maintained for one hour. At the end of the last drug dose, infusion was stopped and a washout period of one hour was instituted. The same infusion rates and times between doses were used when vehicle studies were performed. At the end of each hour, hemodynamic and angiographic measurements were made. Venous blood samples were obtained at baseline and at one hour after each dose. Blood samples (at least 10 mL) were centrifuged at 3000 rpm for 10 minutes and plasma withdrawn and placed in cryostorage tubes and stored upright at −20° C. for future use. In 2 of 8 dogs, active drug was administered as bolus followed by a constant infusion for 3 hours as noted below.
(§1) Plasma biomarkers were measured in Groups I and II. Troponin I (TnI) was determined in plasma based on the principle of the double antibody sandwich enzyme-linked immunosorbent assay (ELISA) (Hirano, T., et al., Immunol Today 1990, 11:443-449) and n-terminal brain natriuretic peptide (NT-pro-BNP) based on competitive ELISA (Bonow, R. O. Circulation 1996, 93:1946-1950). Both biomarkers were assayed using commercially available assay kits. Kits for NT proBNP and TnI were purchased from ALPCO Diagnostics, Salem, N.H. Using standard curves and software, the concentration of each biomarker was expressed as ng/ml for TnI and fmol/ml for NT-proBNP.

A2 receptors = experiment: Ligand status at adenosine A2 receptor; type: binding
A1 receptors = target: T1, A1 receptors (Homo sapiens, UniProt P30542); experiment: Ligand status at adenosine A1 receptor; type: binding
T1 sequence (P30542 1-326): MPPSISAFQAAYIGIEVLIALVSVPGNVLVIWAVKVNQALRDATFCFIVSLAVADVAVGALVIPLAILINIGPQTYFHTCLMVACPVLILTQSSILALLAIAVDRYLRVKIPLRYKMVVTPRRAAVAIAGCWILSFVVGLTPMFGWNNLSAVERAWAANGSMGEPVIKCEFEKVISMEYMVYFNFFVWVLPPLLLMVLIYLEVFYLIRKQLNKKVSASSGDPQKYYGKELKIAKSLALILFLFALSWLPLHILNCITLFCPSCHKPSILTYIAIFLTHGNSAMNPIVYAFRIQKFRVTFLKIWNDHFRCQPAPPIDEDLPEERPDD

[2] = target: T2, NBTI-sensitive adenosine transporter (Homo sapiens, UniProt Q99808); experiment: Ligand status at adenosine transporter; type: binding
T2 sequence (Q99808 1-456): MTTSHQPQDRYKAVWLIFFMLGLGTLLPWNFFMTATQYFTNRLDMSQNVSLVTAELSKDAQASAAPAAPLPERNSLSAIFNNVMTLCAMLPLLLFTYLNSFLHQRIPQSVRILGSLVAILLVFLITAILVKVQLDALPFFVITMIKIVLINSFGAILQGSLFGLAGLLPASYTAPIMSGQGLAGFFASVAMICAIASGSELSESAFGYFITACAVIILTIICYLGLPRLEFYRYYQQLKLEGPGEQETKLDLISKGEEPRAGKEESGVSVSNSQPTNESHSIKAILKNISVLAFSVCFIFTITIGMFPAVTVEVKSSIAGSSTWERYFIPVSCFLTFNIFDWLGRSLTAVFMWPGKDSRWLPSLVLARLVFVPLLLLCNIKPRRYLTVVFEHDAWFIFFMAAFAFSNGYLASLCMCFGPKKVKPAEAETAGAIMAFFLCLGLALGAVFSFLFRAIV

[3] = in man; cited from earlier work
Troponin-I = experiment: Plasma troponin-I, 6 hours infusion study; type: in vivo, dog; details: HF dogs n=6; for Plasma TnI: iv 10 μg/kg/min constant infusion
Method: (§2) Six heart failure dogs described in Example 1 were used. Studies using active drug and placebo were performed in each dog in random order a minimum of one week apart. After baseline hemodynamic, angiographic and echocardiographic measurements, GP-531 tartrate or placebo was administered as a continuous constant intravenous infusion for 6 hours. The dose of GP-531 tartrate was 10 μg/kg/min. Complete hemodynamic, angiographic and echocardiographic measurements were made during baseline, and at 1, 2, 3, 4, 5 and 6 hours after initiating drug infusion. In addition, myocardial oxygen consumption (MVO2) was measured at baseline and 4 and 6 hours after initiating drug or saline infusion. LV pressure-volume relationships (P-V Loops) were also measured at baseline and at 6 hours after initiating drug or saline infusion to assess load independent contractility and relaxation. Venous blood samples were obtained at baseline and hourly thereafter. Blood samples (at least […]) were centrifuged at 3000 rpm for 10 minutes and plasma withdrawn and placed in cryostorage tubes and stored upright at −20° C. until needed. Venous blood samples were used to evaluate plasma levels of troponin-I and plasma levels of n-terminal pro-brain natriuretic peptide (NT-proBNP).
as §1, with “all dogs at all study time points.” for “Groups I and II.”, “al,” for “al.,”, “NT-pro-BNP” for “n-terminal brain natriuretic peptide (NT-pro-BNP)”, “NT-proBNP” for “NT proBNP”

NT-ProBNP [4] = experiment: Plasma NT-proBNP, 6 hours infusion study; type: in vivo, dog; details: HF dogs n=6; for Plasma NT-ProBNP: iv 10 μg/kg/min constant infusion
Method: as §2
as §1, with “all dogs at all study time points.” for “Groups I and II.”, “al,” for “al.,”, “NT-pro-BNP” for “n-terminal brain natriuretic peptide (NT-pro-BNP)”, “NT-proBNP” for “NT proBNP”

[5] = Octanol:water partition coefficient; type: physicochemical; details: read-out: Octanol: water partition coefficient (log P)
Text: Administering a better absorbed more lipophilic prodrug, which is subsequently hydrolysed to GP531, achieves an increase in the systemic availability of GP531.

With `NC(=O)c1ncn(C2OC(CNCc3ccccc3)C(O)C2O)c1N` (centres unmarked) [GP-531 tartrate] the “Effect on plasma NT-Pro-BNP” value (NT-ProBNP [1]; Group I HF dogs, all doses (30, 100, 300 μg/kg/min), vs baseline) was “decreased significantly” and the “Effect on plasma NT-proBNP” value (NT-ProBNP [1]; Group II HF dogs, 3, 10, 30 μg/kg/min, significance only at 30 μg/kg/min) was “tended to decrease with escalating doses”.

For `NC(=O)c1ncn(C2OC(CNCc3ccccc3)C(O)C2O)c1N` [GP-531, 5-amino-1-β-D-(5-benzylamino-5-deoxy-1-β-D-ribofuranosyl)imidazole-4 carboxamide], the “Ligand for A2 receptors” value (A2 receptors) was “has not been shown to be a ligand”, the “Ligand for A1 receptors” value (A1 receptors) was “has not been shown to be a ligand” and the “Ligand for NBTI-sensitive adenosine transporter” value [2] was “has not been shown to be a ligand”. For the same compound, the Oral bioavailability [3] was ~10%, the “Plasma NT-ProBNP” value (NT-ProBNP [1]; Group I HF dogs n=3, 1 h washout after 30/100/300 μg/kg/min) was 204 ± 5 fmol/mL and the “Plasma NT-ProBNP” value (NT-ProBNP [1]; Group I HF dogs n=3, iv 30 μg/kg/min, 1 h) was 128 ± 23 fmol/mL. For the same compound, the “Plasma NT-ProBNP” value (NT-ProBNP [1]; Group I HF dogs n=3, iv 100 μg/kg/min, 1 h) was 131 ± 8 fmol/mL, the “Plasma NT-ProBNP” value (NT-ProBNP [1]; Group I HF dogs n=3, iv 300 μg/kg/min, 1 h) was 121 ± 13 fmol/mL and the “Plasma NT-ProBNP” value (NT-ProBNP [1]; Group II HF dogs n=3, 1 h washout after 3/10/30 μg/kg/min) was 179 ± 6 fmol/mL. For the same compound, the “Plasma NT-ProBNP” value (NT-ProBNP [1]; Group II HF dogs n=3, iv 3 μg/kg/min, 1 h) was 225 ± 34 fmol/mL, the “Plasma NT-ProBNP” value (NT-ProBNP [1]; Group II HF dogs n=3, iv 10 μg/kg/min, 1 h) was 155 ± 1 fmol/mL and the “Plasma NT-ProBNP” value (NT-ProBNP [1]; Group II HF dogs n=3, iv 30 μg/kg/min, 1 h) was 123 ± 21 fmol/mL. The “Plasma TnI” value (Troponin-I; 1 h) was 0.57 ± 0.02 pg/mL, the “Plasma TnI” value (Troponin-I; 2 h) was 0.58 ± 0.02 pg/mL and the “Plasma TnI” value (Troponin-I; 3 h) was 0.38 ± 0.03 pg/mL. For the same compound, the “Plasma TnI” value (Troponin-I; 4 h) was 0.43 ± 0.03 pg/mL, the “Plasma TnI” value (Troponin-I; 5 h) was 0.41 ± 0.03 pg/mL and the “Plasma TnI” value (Troponin-I; 6 h) was 0.42 ± 0.06 pg/mL. For the same compound, the “Effect on plasma troponin-I” value (Troponin-I; iv 10 μg/kg/min for 6 h) was “significantly reduced”, the “Plasma NT-ProBNP” value (NT-ProBNP [4]; 1 h) was 140 ± 13 fmol/mL and the “Plasma NT-ProBNP” value (NT-ProBNP [4]; 2 h) was 131 ± 11 fmol/mL. For the same compound, the “Plasma NT-ProBNP” value (NT-ProBNP [4]; 3 h) was 127 ± 12 fmol/mL, the “Plasma NT-ProBNP” value (NT-ProBNP [4]; 4 h) was 134 ± 11 fmol/mL and the “Plasma NT-ProBNP” value (NT-ProBNP [4]; 5 h) was 130 ± 10 fmol/mL. For the same compound, the “Plasma NT-ProBNP” value (NT-ProBNP [4]; 6 h) was 122 ± 10 fmol/mL, the “Effect on plasma NT-proBNP” value (NT-ProBNP [4]; iv 10 μg/kg/min for 6 h) was “significantly reduced” and the logP [5] was -0.91.
